Source: ChEMBL document CHEMBL2029340 (J Med Chem, 2012)
Calls of active or inactive are those of the source. The rule behind the calls is not given here.

Assays:
[1] = Cytotoxicity against MDCK cells after 3 days by CCK-8 assay; format: cell-based, Canis lupus familiaris; conditions: dog
Influenza A virus [2] = experiment: Antiviral activity against Influenza A virus A/HK/8/68(H3N2) infected in MDCK cells assessed as inhibition of virus-induced cytopathic effects after 3 days by CCK-8 assay; format: functional, organism-based; conditions: 72 h
Influenza A virus [3] = experiment: Antiviral activity against Influenza A virus A/Weiss/43 (H1N1) infected in MDCK cells assessed as inhibition of virus-induced cytopathic effects after 3 days by CCK-8 assay; format: functional, organism-based, Influenza A virus (A/Weiss/1943(H1N1)); conditions: 72 h
Influenza A virus [4] = experiment: Antiviral activity against Influenza A virus A/Mal/302/54 (H1N1) infected in MDCK cells assessed as inhibition of virus-induced cytopathic effects after 3 days by CCK-8 assay; format: functional, organism-based; conditions: 72 h
Influenza A virus [5] = experiment: Antiviral activity against Influenza A virus A/Brisbane/10/2007 (H3N2) infected in MDCK cells assessed as inhibition of virus-induced cytopathic effects after 3 days by CCK-8 assay; format: functional, organism-based; conditions: 72 h
Influenza A virus [6] = experiment: Antiviral activity against Influenza A virus A/Guangzhou/2009 (H1N1) infected in MDCK cells assessed as inhibition of virus-induced cytopathic effects after 3 days by CCK-8 assay; format: functional, organism-based; conditions: 72 h
Influenza A virus [7] = experiment: Antiviral activity against Influenza A virus A/udorn/1972 (H3N2) infected in MDCK cells assessed as inhibition of virus-induced cytopathic effects after 3 days by CCK-8 assay; format: functional, organism-based; conditions: 72 h
Influenza A virus [8] = experiment: Antiviral activity against Influenza A virus A/Guangdong/96 (H9N2) infected in MDCK cells assessed as inhibition of virus-induced cytopathic effects after 3 days by CCK-8 assay; format: functional, organism-based; conditions: 72 h
Influenza A virus [9] = experiment: Antiviral activity against Influenza A virus […] infected in MDCK cells assessed as inhibition of virus-induced cytopathic effects after 3 days by CCK-8 assay; format: functional, organism-based; conditions: 72 h
Influenza A virus [10] = experiment: Antiviral activity against Influenza A virus A/WSN/33 (H1N1) infected in MDCK cells assessed as inhibition of nucleoprotein accumulation in nucleus at 10 uM after 4 hrs by fluorescent microscopy; format: functional, organism-based; conditions: A/WSN/1933(H1N1)

SMILES | CC50 at 72 h [1] | IC50 (Influenza A virus [2]) | other results
COc1ccccc1-n1nnc(C)c1C(=O)N1CCCN(c2ccc([N+](=O)[O-])cc2Cl)CC1 | > 100 µM | > 50 µM | 
Cc1nnn(-c2ccccc2O)c1C(=O)N1CCN(c2ccc([N+](=O)[O-])cc2Cl)CC1 | > 100 µM | 7.84 µM | 
COc1ccccc1-n1nnc(C)c1C(=O)N1CCN(c2ccc([N+](=O)[O-])cc2)CC1 | > 100 µM | > 50 µM | 
COc1ccc(-n2nnc(C)c2C(=O)N2CCN(c3ccc([N+](=O)[O-])cc3Cl)CC2)cc1 | > 100 µM | 14.7 µM | 
O=C(c1ccccc1-c1ccccc1)N1CCN(c2ccc([N+](=O)[O-])cc2Cl)CC1 |  | 7.61 µM | 
CC(=O)c1ccccc1-n1nnc(C)c1C(=O)N1CCN(c2ccc([N+](=O)[O-])cc2Cl)CC1 | > 100 µM | 14.8 µM | 
COc1cccc(OC)c1-n1nnc(C)c1C(=O)N1CCN(c2ccc([N+](=O)[O-])cc2Cl)CC1 | > 100 µM | 2.42 µM | 
Cc1nnn(-c2ccccc2Cl)c1C(=O)N1CCN(c2ccc([N+](=O)[O-])cc2Cl)CC1 | > 100 µM | 5.65 µM | 
COc1ccccc1-n1nnc(C)c1C(=O)N1CCN(c2ccccc2Cl)CC1 | > 100 µM | > 50 µM | 
COc1ccccc1-c1ccccc1C(=O)N1CCN(c2ccc([N+](=O)[O-])cc2Cl)CC1 |  | 3.68 µM | 
Cc1ccccc1-n1nnc(C)c1C(=O)N1CCN(c2ccc([N+](=O)[O-])cc2Cl)CC1 | > 100 µM | 4.92 µM | 
COc1cc([N+](=O)[O-])ccc1N1CCN(C(=O)c2c(C)nnn2-c2ccccc2OC)CC1 | > 100 µM | > 50 µM | 
COc1ccccc1-n1nncc1C(=O)N1CCN(c2ccc([N+](=O)[O-])cc2Cl)CC1 | > 100 µM | > 50 µM | 
Cc1[nH]nc(-c2ccccc2)c1C(=O)N1CCN(c2ccc([N+](=O)[O-])cc2Cl)CC1 |  | 8.64 µM | 
COc1ccccc1-n1nnc(C)c1C(=O)N1CCN(c2ccc([N+](=O)[O-])cc2Cl)CC1 | > 100 µM | 1.97 µM | IC50 (Influenza A virus [3]): 0.66 µM; IC50 (Influenza A virus [4]): 0.9 µM; IC50 (Influenza A virus [5]): > 50 µM; IC50 (Influenza A virus [6]): 0.52 µM; IC50 (Influenza A virus [7]): 1.17 µM; IC50 (Influenza A virus [8]): 4.62 µM; IC50 (Influenza A virus [9]): 1.86 µM; inhibition (Influenza A virus [10]): Active
COc1ccccc1-c1onc(C)c1C(=O)N1CCN(c2ccc([N+](=O)[O-])cc2Cl)CC1 |  | 2.62 µM | 
Cc1onc(-c2ccccc2)c1C(=O)N1CCN(c2ccc([N+](=O)[O-])cc2Cl)CC1 [NUCLEOZIN] | 15.9 µM | 1.08 µM | IC50 (Influenza A virus [3]): 0.2 µM; IC50 (Influenza A virus [4]): 0.52 µM; IC50 (Influenza A virus [5]): 12.4 µM; IC50 (Influenza A virus [6]): 0.54 µM; IC50 (Influenza A virus [7]): 0.34 µM; IC50 (Influenza A virus [8]): 3.87 µM; IC50 (Influenza A virus [9]): 1.59 µM
COc1ccccc1-n1nnc(C)c1C(=O)N1CCN(c2ccccc2)CC1 | > 100 µM | > 50 µM | 
CCOc1ccccc1-n1nnc(C)c1C(=O)N1CCN(c2ccc([N+](=O)[O-])cc2Cl)CC1 | > 100 µM | 8.97 µM | 
Cc1noc(-c2ccccc2)c1C(=O)N1CCN(c2ccc([N+](=O)[O-])cc2Cl)CC1 |  | 6 µM | 
Cc1[nH]nc(-c2ccccc2Cl)c1C(=O)N1CCN(c2ccc([N+](=O)[O-])cc2Cl)CC1 |  | 2.87 µM | 
Cc1nnn(-c2cccc(Cl)c2)c1C(=O)N1CCN(c2ccc([N+](=O)[O-])cc2Cl)CC1 | > 100 µM | 9.38 µM | 
CCc1nnn(-c2ccccc2OC)c1C(=O)N1CCN(c2ccc([N+](=O)[O-])cc2Cl)CC1 | > 100 µM | > 50 µM | 
NC12CC3CC(CC(C3)C1)C2 [AMANTADINE] | > 100 µM | 2.22 µM | 
Cc1nnn(-c2ccccc2OC(C)C)c1C(=O)N1CCN(c2ccc([N+](=O)[O-])cc2Cl)CC1 | > 100 µM | 16.2 µM | 
Cc1nnn(-c2ccccc2)c1C(=O)N1CCN(c2ccc([N+](=O)[O-])cc2Cl)CC1 | > 100 µM | 5.16 µM | 
Cc1nnn(-c2ccc(Cl)cc2)c1C(=O)N1CCN(c2ccc([N+](=O)[O-])cc2Cl)CC1 | > 100 µM | > 50 µM | 
COc1cccc(-n2nnc(C)c2C(=O)N2CCN(c3ccc([N+](=O)[O-])cc3Cl)CC2)c1 | > 100 µM | 13.8 µM | 
